# Results taken from patent US11718589B2, “Compositions and methods of modulating short-chain dehydrogenase” (CASE WESTERN RESERVE UNIVERSITY, priority 2017, dated 2023).
# pIC50: −log10 of the molar value.
# Target: recombinant 15-PGDH (Homo sapiens (Human), UniProt P15428)
# Assay: Enzyme inhibition of recombinant 15-PGDH, in vitro assay
# Assay type: biochemical
# Conditions: not given
# Sequence of recombinant 15-PGDH (P15428 whole entry): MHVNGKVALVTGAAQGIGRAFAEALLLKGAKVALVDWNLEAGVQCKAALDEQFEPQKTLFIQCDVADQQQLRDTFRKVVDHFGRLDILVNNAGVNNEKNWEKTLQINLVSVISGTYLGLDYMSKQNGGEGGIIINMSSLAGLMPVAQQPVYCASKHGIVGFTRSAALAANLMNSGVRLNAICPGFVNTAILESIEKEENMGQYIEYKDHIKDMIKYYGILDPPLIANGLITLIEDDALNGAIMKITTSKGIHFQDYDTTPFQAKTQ
row,SMILES,pIC50
1,COc1ccc(-c2cc(C(F)(F)F)n3nc(C(=O)N4CCC(=O)CC4)cc3n2)cc1 [13a],5.60 to 6.30

# Same assay, conditions: recombinant human 15-PGDH; read-out: Enzyme inhibition (IC50)
row,SMILES,pIC50
1,"CCCCSc1cc2nc(-c3ccc(OC)cc3)cc(C(F)(F)F)n2n1 [2a, 2-(butylthio)-5-(4-methoxyphenyl)-7-(trifluoromethyl)pyrazolo[1,5-a]pyrimidine]",< 5.60
2,CCCCSc1ccc2nc(-c3ccccc3)c(-c3ccccc3)nc2c1 [2b],< 5.60
3,CCCCS(=O)(=O)c1ccc2nc(-c3ccccc3)c(-c3ccccc3)nc2c1 [4b],< 5.60
4,CCN(CC)C(=O)c1cc2nc(-c3ccc(OC)cc3)cc(C(F)(F)F)n2n1 [8a],7.00
5,COc1ccc(-c2cc(C(F)(F)F)n3nc(C(=O)N4CCCC4)cc3n2)cc1 [9a],< 5.60
6,COc1ccc(-c2cc(C(F)(F)F)n3nc(C(=O)N4CCOCC4)cc3n2)cc1 [10a],6.30 to 7.00
7,COc1ccc(-c2cc(C(F)(F)F)n3nc(C(=O)N4CCCCCC4)cc3n2)cc1 [11a],7.72
8,COc1ccc(-c2cc(C(F)(F)F)n3nc(C(=O)N4CCC(NC(=O)OC(C)(C)C)CC4)cc3n2)cc1 [14a],6.30 to 7.00
9,COc1ccc(-c2cc(C(F)(F)F)n3nc(C(=O)N4CCC(F)CC4)cc3n2)cc1 [15a],7.38
10,O=C(NCc1ccccc1)c1ccc2nc(-c3ccccc3)c(-c3ccccc3)nc2c1 [15b],< 5.60
11,COc1ccc(-c2cc(C(F)(F)F)n3nc(C(=O)N4CCC(CO)CC4)cc3n2)cc1 [16a],> 7.00
12,COC(=O)CNC(=O)c1ccc2nc(-c3ccccc3)c(-c3ccccc3)nc2c1 [16b],< 5.60
13,COc1ccc(-c2cc(C(F)(F)F)n3nc(C(=O)N4CCCCC4CO)cc3n2)cc1 (stereo not shown) [17a],> 7.00
14,O=C(NCCO)c1ccc2nc(-c3ccccc3)c(-c3ccccc3)nc2c1 [17b],< 5.60
15,COc1ccc(-c2cc(C(F)(F)F)n3nc(C(=O)N4CCC(C)CC4)cc3n2)cc1 [18a],7.51
16,COc1ccc(-c2cc(C(F)(F)F)n3nc(C(=O)N4CCCC(C)C4)cc3n2)cc1 (stereo not shown) [19a],7.84
17,C=CCNC(=O)c1ccc2nc(-c3ccccc3)c(-c3ccccc3)nc2c1 [19b],< 5.60
18,COc1ccc(-c2cc(C(F)(F)F)n3nc(C(=O)N4CCCCC4C)cc3n2)cc1 (stereo not shown) [20a],7.48
19,COc1ccc(-c2cc(C(F)(F)F)n3nc(C(=O)N4CCC(OC)CC4)cc3n2)cc1 [21a],6.30 to 7.00
20,O=C(O)c1ccc2nc(-c3ccccc3)c(-c3ccccc3)nc2c1 [21b],< 5.60
21,COc1ccc(-c2cc(-c3ccncc3)n3nc(C(=O)N4CCCCC4)cc3n2)cc1 [22a],~7.00

row,SMILES,pIC50
1,COc1ccc(-c2cc(-c3cccnc3)n3nc(C(=O)N4CCCCC4)cc3n2)cc1 [23a],~7.00
2,COc1ccc(-c2cc(-c3ccccn3)n3nc(C(=O)N4CCCCC4)cc3n2)cc1 [24a],7.00 to 7.70
3,COc1ccc(-c2cc(-c3ccnc(Cl)c3)n3nc(C(=O)N4CCCCC4)cc3n2)cc1 [25a],< 7.00
4,COc1ccc(-c2cc(-c3ccncc3Cl)n3nc(C(=O)N4CCCCC4)cc3n2)cc1 [26a],~6.30
5,O=C(c1ccc2nc(-c3ccccc3)c(-c3ccccc3)nc2c1)N1CCCCC1CO (stereo not shown) [26b],6.30 to 7.00
6,COc1ccc(-c2cc(-c3ccc(F)nc3)n3nc(C(=O)N4CCCCC4)cc3n2)cc1 [27a],< 6.30
7,COc1ccc(-c2cc(-c3cncnc3)n3nc(C(=O)N4CCCCC4)cc3n2)cc1 [28a],6.30 to 7.00
8,COc1ccc(-c2cc(-c3cnn(C)c3)n3nc(C(=O)N4CCCCC4)cc3n2)cc1 [29a],7.00 to 7.70
9,CC1CCCCN1C(=O)c1ccc2nc(-c3ccccc3)c(-c3ccccc3)nc2c1 (stereo not shown) [29b],6.30 to 7.00
10,COc1ccc(-c2cc(-c3ccnc(F)c3)n3nc(C(=O)N4CCCCC4)cc3n2)cc1 [30a],7.00 to 7.70
11,CNc1cc(-c2ccc(OC)cc2)nc2cc(C(=O)N3CCCCC3)nn12 [31a],7.00 to 7.70
12,COc1ccc(-c2cc(N(C)C)n3nc(C(=O)N4CCCCC4)cc3n2)cc1 [32a],7.48
13,O=C(c1ccc2nc(-c3ccccc3)[nH]c2c1)N1CCCCC1 [32b],6.30 to 7.00
14,COc1ccc(-c2cc(OC)n3nc(C(=O)N4CCCCC4)cc3n2)cc1 [33a],7.00 to 7.70
15,O=C(c1ccc2nc(-c3ccccc3)c(-c3cccnc3)nc2c1)N1CCCCC1 [33b],7.70
16,COc1ccc(-c2cc(-c3ccccc3)n3nc(C(=O)N4CCCCC4)cc3n2)cc1 [34a],< 6.30
17,O=C(c1ccc2nc(-c3ccccc3)c(-c3ccncc3)nc2c1)N1CCCCC1 [34b],7.70
18,COc1ccc(-c2cc(C)n3nc(C(=O)N4CCCCC4)cc3n2)cc1 [35a],7.00
19,O=C(c1ccc2nc(-c3ccccc3)c(-c3ccc(F)nc3)nc2c1)N1CCCCC1 [35b],7.00 to 7.70
20,O=C(c1cc2nc(-c3ccc(F)cc3)cc(C(F)(F)F)n2n1)N1CCCCC1 [36a],7.51
21,O=C(c1ccc2nc(-c3ccccc3)c(-c3cncnc3)nc2c1)N1CCCCC1 [36b],7.00 to 7.70

row,SMILES,pIC50
1,O=C(c1cc2nc(-c3cncnc3)cc(C(F)(F)F)n2n1)N1CCCCC1 [37a],< 5.60
2,Cn1cc(-c2nc3cc(C(=O)N4CCCCC4)ccc3nc2-c2ccccc2)cn1 [37b],7.00 to 7.70
3,Cn1cc(-c2cc(C(F)(F)F)n3nc(C(=O)N4CCCCC4)cc3n2)cn1 [38a],< 5.60
4,Cc1cc(-c2nc3cc(C(=O)N4CCCCC4)ccc3nc2-c2ccccc2)ccn1 [38b],7.70
5,O=C(c1cc2nc(N3CCCCC3)cc(C(F)(F)F)n2n1)N1CCCCC1 [39a],6.18
6,Cc1ccc(-c2cc(C(F)(F)F)n3nc(C(=O)N4CCCCC4)cc3n2)cc1 [40a],6.40
7,O=C(c1cc2ncc(-c3ccccc3)cn2n1)N1CCCCC1 [41a],6.11
8,O=C(c1ccc2ncc(-c3cccc(F)c3)nc2c1)N1CCCCC1 [41b],7.70 to 8.40
9,O=C(c1cc2nc(-c3cccs3)cc(C(F)(F)F)n2n1)N1CCCCC1 [42a],< 5.60
10,O=C(c1ccc2ncc(-c3ccc(F)cc3)nc2c1)N1CCCCC1 [42b],7.70 to 8.40
11,O=C(c1cc2nc(-c3ccccc3C(F)(F)F)cc(C(F)(F)F)n2n1)N1CCCCC1 [43a],< 5.60
12,COc1ccc(-c2cc(N3CCCCC3)n3nc(C(=O)N4CCCCC4)cc3n2)cc1 [44a],6.30
13,O=C(c1cc2nc(-c3nccs3)cc(C(F)(F)F)n2n1)N1CCCCC1 [45a],7.85
14,O=C(c1ccc2ncc(-c3ccc(F)cc3F)nc2c1)N1CCCCC1 [45b],8.40
15,O=C(c1cc2nc(-c3ccc(C(F)(F)F)cc3)cc(C(F)(F)F)n2n1)N1CCCCC1 [47a],< 5.60
16,O=C(c1ccc2ncc(-c3cc(F)cc(F)c3)nc2c1)N1CCCCC1 [47b],7.80
17,CCCC[S+]([O-])c1cc2nc(-c3nccs3)cc(C(F)(F)F)n2n1 (stereo not shown) [48a],7.00 to 7.70
18,CCCC[S+]([O-])c1nc2nc(-c3ccc(OC)cc3)cc(C(F)(F)F)n2n1 (stereo not shown) [49a],< 5.60
19,CCCC[S+]([O-])c1nc2nc(-c3nccs3)cc(C(F)(F)F)n2n1 (stereo not shown) [50a],< 5.60
20,CCCC[S+]([O-])c1cc2nc(-c3ccc(OC)cc3)cc(-c3cccnc3)n2n1 (stereo not shown) [51a],5.60 to 6.30
21,CCCC[S+]([O-])c1cc2nc(-c3ccc(OC)cc3)cc(-c3cncnc3)n2n1 (stereo not shown) [52a],5.60

row,SMILES,pIC50
1,CCCC[S+]([O-])c1cc2nc(-c3ccc(OC)cc3)cc(-c3cnn(C)c3)n2n1 (stereo not shown) [53a],5.60 to 6.30
2,CCCC[S+]([O-])c1cc2nc(-c3ccc(OC)cc3)cc(-c3cccn3C)n2n1 (stereo not shown) [54a],7.70 to 8.40
3,CCCC[S+]([O-])c1nc2nc(-c3ccc(OC)cc3)cc(-c3ccccc3)n2n1 (stereo not shown) [55a],< 5.60
4,O=C(c1cc2nc(-c3ccc(Cl)cc3)cc(C(F)(F)F)n2n1)N1CCCCC1 [56a],< 5.60
5,COc1ccc(-c2cc(C(F)(F)F)n3nc(C(=O)N4CC(C)CC(C)C4)cc3n2)cc1 (stereo not shown) [57a],7.00
6,COc1ccc(-c2cc(C(F)(F)F)n3nc(C(=O)N4CCCC(CF)C4)cc3n2)cc1 (stereo not shown) [58a],7.00 to 7.70
7,COc1ccc(-c2cc(C(F)(F)F)n3nc(C(=O)N4CCC(F)(F)CC4)cc3n2)cc1 [59a],6.30 to 7.00
8,COc1ccc(-c2cc(C(F)(F)F)n3nc(C(=O)N4CCC(C(F)(F)F)CC4)cc3n2)cc1 [60a],5.60 to 6.30
9,O=C(c1cc2nc(-c3ccccc3)cc(C(F)(F)F)n2n1)N1CCCCC1 [61a],< 5.60
10,COc1ccc(-c2cc(C(F)(F)F)n3nc(C(=O)N4CCCC(=O)C4)cc3n2)cc1 [62a],5.60 to 6.30
11,COc1ccc(-c2cc(C(F)(F)F)n3nc(C(=O)N4CCCC(C)(C)C4)cc3n2)cc1 [63a],7.70 to 8.40
12,Nc1ccc(-c2cnc3ccc(C(=O)N4CCCCC4)cc3n2)cc1 [63b],7.70 to 8.40
13,COc1ccc(-c2cc(C(F)(F)F)n3nc(C(=O)N4CCCC(C(F)(F)F)C4)cc3n2)cc1 (stereo not shown) [64a],6.30 to 7.00
14,COc1ccc(-c2cc(C(F)(F)F)n3nc(C(=O)N4CCCC(F)(F)C4)cc3n2)cc1 [65a],7.00
15,COc1ccc(-c2cc(C(F)(F)F)n3nc(C(=O)N4CCCC(C(F)F)C4)cc3n2)cc1 (stereo not shown) [66a],7.00 to 7.70
16,COc1ccc(-c2cc(C3CC3)n3nc(C(=O)N4CCCCC4)cc3n2)cc1 [67a],7.70 to 8.40
17,O=C(c1cc2nc(-c3ccc(O)cc3)cc(C(F)(F)F)n2n1)N1CCCCC1 [68a],< 5.60
18,CCOc1ccc(-c2cc(C(F)(F)F)n3nc(C(=O)N4CCCCC4)cc3n2)cc1 [69a],5.60 to 6.30
